The results in this text go back to patent US20210040054A1, “Substituted Hydrophobic Benzene Sulfonamide Thiazole Compounds for Use in Treating Cancer” (INSERM (Institut National de la Sante et de la Recherche …, priority 2015, published 2021).

Assay type in all cases: cell-based
Data set [1] has as its system MiaPACA cell lines (resistant to the nucleoside analog Gemcitabine). In words: Cell viability on Gemcitabine-resistant pancreatic cancer cells (FIG. 2c). As to the method:
(§1) Cells were seeded in 6-well plates (60000 cells/well), depleted and incubated with compounds for the times indicated. Then cells were detached in the presence of 200 μl of HyQTase (Thermo) and 2 ml of RPMI 1640 Glutamax (Gibco) was added to the cell solution. 10 μl of this solution was stained for 1 minute with 10 μl of 0.4% trypan blue before counting with a Malassez chamber.
(§2) FIG. 1: the Effect of Compounds Ia-7, IIIa-3, IIIa-1, IIIa-2, 11a-2, 11a-9, Ia-4, Ha-11, IIa-12, IIa-6, Compared to Ia-1, on Cell Viability on A375 Melanoma Cells. Cell viability was assessed by measuring the number of cells alive in samples of different cells. The measure of cell viability as performed by cell counting using the trypan blue exclusion method. Results were expressed as the percentage of cells alive relatively to the number of living cells in the presence of DMSO, which corresponds to the negative control associated to the 100% value. […] The very active compounds IIa-2, IIIa-1 and IIIa-3 substituted in para position respectively with an octyne, hexyl and octyl chain, were selected to investigate their potential to promote cell death on resistant melanoma cell lines as well as other cancer cell lines. FIG. 2a. Effect of Compounds 11a-2, IIIa-1 and IIIa-3 on Cell Viability on Melanoma Cells. PLX4032 was Used as a Positive Control. […] FIG. 2b. Effect of Compounds IIa-2, IIIa-1 and IIIa-3 on Cell Viability on CML Cells. Imatinib was Used as a Positive Control. The activity of compounds IIa-2, IIIa-1 and IIIa-3 against CML cells was also evaluated. […] FIG. 2c. Effect of Compounds IIa-2, IIIa-1 and IIIa-3 on Cell Viability on Pancreatic Cancer Cells. Gemcitabine was Used as a Positive Control. The compounds IIa-2, IIIa-1 and IIIa-3 were next evaluated against pancreatic cells, BxPC3 (sensitive) and MiaPACA cell lines (resistant to the nucleoside analog Gemcitabine).

Data set [2] relates to A375 melanoma cells. Description: Cell viability, trypan blue exclusion cell counting (FIG. 1). The settings on record: compared to reference compound Ia-1. Here is the method:
(§3) Different melanoma cell lines were purchased from American Tissue Culture Collection (Molsheim, France). Cells were grown in RPMI 1640 (A375, WM9 and patient melanoma cells) or in DMEM medium (Mel501) supplemented with 10% FCS and penicillin/streptomycin (100 U/ml/[…]) at 37° C. and 5% CO2.
as §1
as §2, with “Effect of Compounds IIa-2, IIIa-1 and IIIa-3 on Cell Viability on Pancreatic Cancer Cells. Gemcitabine was Used as a Positive Control.” left out

Data set [3] concerns sensitive melanoma cell lines. Description: Cell viability on sensitive melanoma cell lines (FIG. 2a). The conditions noted are these: 10 μM. As to the method: as §3, §1
as §2, with “Effect of Compounds IIa-2, IIIa-1 and IIIa-3 on Cell Viability on Pancreatic Cancer Cells. Gemcitabine was Used as a Positive Control.” left out

The subject of data set [4] is resistant A375 R5C3 an A375 RIV cell lines. Description: Cell viability on resistant melanoma cell lines (FIG. 2a). The settings on record: resistant A375 R5C3 and A375 RIV cell lines; 10 μM. As to the method: as §3, §1, §2
Data set [5] deals with sensitive K562 CML cells. In words: Cell viability on sensitive CML cells (FIG. 2b). The settings on record: compared with Imatinib. Here is the method: as §1, §2
Data set [6] relates to resistant K562 cells. Description: Cell viability on resistant CML cells (FIG. 2b). The settings on record: compared with Imatinib. As to the method:
as §1, §2

The test system of data set [7] is BxPC3 (sensitive). Description: Cell viability on sensitive pancreatic cancer cells (FIG. 2c). The conditions noted are these: compared with Gemcitabine. Here is the method:
as §1, §2

The subject of data set [8] is human normal melanocytes. In words: Viability of normal melanocytes (FIG. 3). The conditions noted are these: different concentration of IIa-2. As to the method: Normal human melanocytes (NHM) prepared from foreskins of newborns were grown under 5% CO2 at 37° C. in MCDB 153 (Sigma) supplemented with 2% FCS, bovine pituitary extract (10 μg/ml), PMA (8 nM), bFGF (1 ng/ml), insulin (5 μg/ml), hydrocortisone (0.5 μg/ml), forskolin (10 μM), gentamicin (20 μg/ml), penicillin/streptomycin/amphotericin B (100 U/ml) (Invitrogen).
as §1
(§4) Primary cell cultures of human normal melanocytes were prepared from human foreskin. In order to determine the effect of compound IIa-2 on cell viability of melanocytes and fibroblasts, different concentration of IIa-2 were added to the cell samples. The measure of cell viability was performed in the same way as for FIG. 1. Results are expressed as the percentage of living cells relatively to the number of living cells in the presence of DMSO, as for FIG. 1.

The subject of data set [9] is Normal human fibroblasts. Description: Viability of normal fibroblasts (FIG. 3). The settings on record: different concentration of IIa-2. As to the method: Normal human fibroblasts prepared from foreskins of newborns were grown under 5% CO2 at 37° C. in DMEM medium supplemented with 10% FCS and penicillin/streptomycin (100 U/ml/[…]).
as §1, §4

The test system of data set [10] is A375 melanoma cell line. Description: Western blot, mechanism of death: PARP cleavage (apoptosis) and LCII/LCIII conversion (autophagy) (FIG. 4). The settings on record: IIa-2 at 10 μM. Here is the method: Proteins were extracted in Fisher buffer containing TRIS-HCl pH 7.5 50 mM, NaCl 15 mM, Triton X-100 1% and proteases and phosphatases inhibitors. Briefly, cell lysates (30 μg) were separated by SDS-PAGE, transferred onto a PVDF membrane (Millipore, Molsheim, France) and then exposed to the appropriate antibodies. Proteins were visualized with the ECL system from Amersham (Arlington, Heights, Ill., USA). The western blots shown are representative of at least 3 independent experiments.
For orientation: A western blot detects proteins with antibodies after separation by electrophoresis.

“Also recorded” adds a separate entry of the source.

Take `Nc1ccn([C@@H]2O[C@H](CO)[C@@H](O)C2(F)F)c(=O)n1` [Gemcitabine, reference compound]: the cell viability entry in data set [1] was “inactive”.

In the case of `CCCCCCc1ccc(S(=O)(=O)Nc2cccc(-c3csc(NC(C)=O)n3)c2)cc1` [IIIa-1, N-(4-(3-((4-hexylphenyl)sulfonamido)phenyl)thiazol-2-yl)acetamide], the “cell viability (percentage of cells alive relatively to DMSO)” value in data set [2] is “very active”. Moreover, the cell viability result in data set [3] was “strong activity”; in data set [4], “strong activity”; in data set [5], “viability decrease in the same range than the standard BCR-ABL inhibitor Imatinib”; in data set [6], “much more active”; in [7], “very high activity”; in [1], “still very active”.

`CCCCCCCCc1ccc(S(=O)(=O)Nc2cccc(-c3csc(NC(C)=O)n3)c2)cc1` [IIIa-3, N-(4-(3-((4-octylphenyl)sulfonamido)phenyl)thiazol-2-yl)acetamide]: the “cell viability (percentage of cells alive relatively to DMSO)” value in data set [2] is listed as “very active”. Further, the cell viability entry in data set [3] is on record as “strong activity”; in data set [4] it was “strong activity”; in data set [5] it was “viability decrease in the same range than the standard BCR-ABL inhibitor Imatinib”; in data set [6], “much more active”; in [7], “very high activity”; in [1], “still very active”.

As to `CCCCCCC#Cc1ccc(S(=O)(=O)Nc2cccc(-c3csc(NC(C)=O)n3)c2)cc1` [IIa-2, N-(4-(3-((4-(oct-1-yn-1-yl)phenyl)sulfonamido)phenyl)thiazol-2-yl)acetamide], the “cell viability (percentage of cells alive relatively to DMSO)” value in data set [2] was “very active”. Further, the cell viability result in data set [3] was “strong activity”; in [4], “strong activity”; in data set [5], “viability decrease in the same range than the standard BCR-ABL inhibitor Imatinib”; in data set [6] it was “much more active; also recorded: almost total mortality”; in data set [7] it was “very high activity; also recorded: total cell death”. Also, the “cell viability of normal cells (percentage of living cells relatively to DMSO)” value in data set [8] and in data set [9] was “no effect” each time. For the same compound, the “mechanism of death: PARP cleavage (apoptosis) and LCII/LCIII conversion (autophagy)” value in data set [10] was “induced both apoptosis and autophagy cellular deaths”.

In the case of `CCCS(=O)(=O)Nc1ccc(F)c(C(=O)c2c[nH]c3ncc(-c4ccc(Cl)cc4)cc23)c1F` [PLX4032, reference compound], the cell viability entry in [4] is reported as “looses most activity”. Also, the “mechanism of death: PARP cleavage (apoptosis) and LCII/LCIII conversion (autophagy)” value in data set [10] is on record as “only apoptosis is induced”.
